Usually IC50 stands for the concentration that gives 50% inhibition.

Each structure is given as a SMILES string. Read-outs that look alike come from different tables or passages of the source. Where only a bound is given, the exact number is not on record here.

Among the data in patent publication US20230312587A1, “PTERIDINONE COMPOUNDS AND USES THEREOF” (Vertex Pharmaceutical Incorporated, priority 2018, published 2023) are IC50 values, retold here.

For this assay, the system named is β-catenin-TCF-mediated reporter transcription activity in Colo 205 cells. Description: Colo 205 reporter assay (TCF/LEF luciferase). It is filed as cell-based. The settings on record: Homo sapiens, Colo 205 TCF/LEF luciferase reporter, five hours after addition of compound, read-out: TCF reporter Colo205 IC50. The gist of the method: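 Luciferase signal from a TCF/LEF-driven reporter, stably integrated in Colo 205 colon cancer cells, was measured 5 h after compound addition.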

Turning to `CC[C@H]1C(=O)Nc2c(C)nc(NCc3cnn(Cc4ccc(OCC(F)(F)F)nc4)c3)nc2N1C` [Compound 433, (7S)-7-ethyl-4,8-dimethyl-2-(((1-((6-(2,2,2-trifluoroethoxy)pyridin-3-yl)methyl)-1H-pyrazol-4-yl)methyl)amino)-7,8-dihydropteridin-6(5H)-one], the IC50 (COLO 205, 5 h) was < 300 nM.

With `Cc1nc(NCc2cnn(Cc3ccc(OCC(F)(F)F)nc3)c2)nc2c1NC(=O)[C@H](C1CC1)N2C` [Compound 435, (7S)-7-cyclopropyl-4,8-dimethyl-2-(((1-((6-(2,2,2-trifluoroethoxy)pyridin-3-yl)methyl)-1H-pyrazol-4-yl)methyl)amino)-7,8-dihydropteridin-6(5H)-one], the IC50 (COLO 205, 5 h) is < 300 nM.

Take `Cc1nc(NCc2cnn(Cc3ccc(Cl)nc3)c2)nc2c1NC(=O)[C@H](C(C)(C)C)N2C` [Compound 438, (7S)-7-(tert-butyl)-2-(((1-((6-chloropyridin-3-yl)methyl)-1H-pyrazol-4-yl)methyl)amino)-4,8-dimethyl-7,8-dihydropteridin-6(5H)-one]: the IC50 (COLO 205, 5 h) is < 300 nM.

On to `Cc1nc(NCc2cnn(Cc3ccc(C(F)(F)F)nc3)c2)nc2c1NC(=O)[C@H](CCO)N2` [Compound 439, (S)-7-(2-hydroxyethyl)-4-methyl-2-(((1-((6-(trifluoromethyl)pyridin-3-yl)methyl)-1H-pyrazol-4-yl)methyl)amino)-7,8-dihydropteridin-6(5H)-one], for which the IC50 (COLO 205, 5 h) is ≥ 5000 nM.

Consider `Cc1nc(NCc2cnn(Cc3ccc(C4CC4)nc3)c2)nc2c1NC(=O)[C@H](C1CC1)N2C` [Compound 441, (7S)-7-cyclopropyl-2-(((1-((6-cyclopropylpyridin-3-yl)methyl)-1H-pyrazol-4-yl)methyl)amino)-4,8-dimethyl-7,8-dihydropteridin-6(5H)-one], for which the IC50 (COLO 205, 5 h) is < 300 nM.

Consider `Cc1nc(NCc2cnn(Cc3ccc(C4CC4)nc3)c2)nc2c1NC(=O)[C@H](C(C)C)N2C` [Compound 442, (7S)-2-(((1-((6-cyclopropylpyridin-3-yl)methyl)-1H-pyrazol-4-yl)methyl)amino)-7-isopropyl-4,8-dimethyl-7,8-dihydropteridin-6(5H)-one], for which the IC50 (COLO 205, 5 h) was < 300 nM.

For `Cc1nc(NCc2cnn(CCc3ccc(C(F)(F)F)nc3)c2)nc2c1NC(=O)[C@H](C)N2C` [Compound 444, (7S)-4,7,8-trimethyl-2-(((1-(2-(6-(trifluoromethyl)pyridin-3-yl)ethyl)-1H-pyrazol-4-yl)methyl)amino)-7,8-dihydropteridin-6(5H)-one], the half-inhibitory concentration (IC50) (COLO 205, 5 h) is 300 to 1000 nM.

Turning to `Cc1nc(NCc2cnn(Cc3ccnc(Cl)c3)c2)nc2c1NC(=O)[C@H](C(C)C)N2C` [Compound 446, (7S)-2-(((1-((2-chloropyridin-4-yl)methyl)-1H-pyrazol-4-yl)methyl)amino)-7-isopropyl-4,8-dimethyl-7,8-dihydropteridin-6(5H)-one], for the setting “COLO 205, 5 h”, the half-inhibitory concentration (IC50) was < 300 nM.

As for `Cc1nc(NCc2cnn(Cc3ccnc(N(C)C)c3)c2)nc2c1NC(=O)[C@H](C(C)C)N2C` [Compound 448, (S)-2-(((1-((2-(dimethylamino)pyridin-4-yl)methyl)-1H-pyrazol-4-yl)methyl)amino)-7-isopropyl-4,8-dimethyl-7,8-dihydropteridin-6(5H)-one], the IC50 (COLO 205, 5 h) was < 300 nM.

As for `COc1c(F)cc(Cn2cc(CNc3nc(C)c4c(n3)N(C)[C@@H](C(C)C)C(=O)N4)nn2)cc1F` [Compound 451, (S)-2-(((1-(3,5-difluoro-4-methoxybenzyl)-1H-1,2,3-triazol-4-yl)methyl)amino)-7-isopropyl-4,8-dimethyl-7,8-dihydropteridin-6(5H)-one], the IC50 (COLO 205, 5 h) was < 300 nM.

With `Cc1nc(NCc2cn(Cc3cc(F)c(F)c(F)c3)nn2)nc2c1NC(=O)[C@H](C(C)C)N2C` [Compound 452, (S)-7-isopropyl-4,8-dimethyl-2-(((1-(3,4,5-trifluorobenzyl)-1H-1,2,3-triazol-4-yl)methyl)amino)-7,8-dihydropteridin-6(5H)-one], the IC50 (COLO 205, 5 h) was < 300 nM.

Consider `Cc1nc(NCc2cc(C)n(-c3ccc(C(F)(F)F)cc3)c2C)nc2c1NC(=O)[C@H](C(C)C)N2C` [Compound 453, (S)-2-(((2,5-dimethyl-1-(4-(trifluoromethyl)phenyl)-1H-pyrrol-3-yl)methyl)amino)-7-isopropyl-4,8-dimethyl-7,8-dihydropteridin-6(5H)-one], for which the IC50 (COLO 205, 5 h) is < 300 nM.

For `Cc1nc(NCc2cnn(Cc3ccc(F)cn3)c2)nc2c1NC(=O)[C@H](C(C)C)N2C` [Compound 454, (S)-2-(((1-((5-fluoropyridin-2-yl)methyl)-1H-pyrazol-4-yl)methyl)amino)-7-isopropyl-4,8-dimethyl-7,8-dihydropteridin-6(5H)-one], the IC50 (COLO 205, 5 h) is < 300 nM.

On to `Cc1nc(NCc2cnn(Cc3cc(F)c(F)c(F)c3)c2)nc2c1NC(=O)[C@H](C1CC1)N2C` [Compound 456, (S)-7-cyclopropyl-4,8-dimethyl-2-(((1-(3,4,5-trifluorobenzyl)-1H-pyrazol-4-yl)methyl)amino)-7,8-dihydropteridin-6(5H)-one], for which, under “COLO 205, 5 h”, the IC50 was < 300 nM.

For the molecule `COc1c(F)cc(Cn2cc(CNc3nc(C)c4c(n3)N(C)[C@@H](C3CC3)C(=O)N4)cn2)cc1F` [Compound 457, (S)-7-cyclopropyl-2-(((1-(3,5-difluoro-4-methoxybenzyl)-1H-pyrazol-4-yl)methyl)amino)-4,8-dimethyl-7,8-dihydropteridin-6(5H)-one], where the note is “COLO 205, 5 h”, the IC50 was < 300 nM.

On to `Cc1nc(N[C@H]2C[C@@H](NC(=O)Nc3ccc(F)cc3)C2)nc2c1NC(=O)[C@H](C)N2C` [Compound 458, 1-(4-fluorophenyl)-3-(cis-3-(((S)-4,7,8-trimethyl-6-oxo-5,6,7,8-tetrahydropteridin-2-yl)amino)cyclobutyl)urea], for which the IC50 (COLO 205, 5 h) lay within 300 to 1000 nM.

`Cc1nc(N[C@H]2C[C@H](NC(=O)Nc3ccc(F)cc3)C2)nc2c1NC(=O)[C@H](C)N2C` [Compound 459, 1-(4-fluorophenyl)-3-(trans-3-(((S)-4,7,8-trimethyl-6-oxo-5,6,7,8-tetrahydropteridin-2-yl)amino)cyclobutyl)urea]: for the setting “COLO 205, 5 h”, the concentration for half-maximal inhibition (IC50) was ≥ 5000 nM.

Take `Cc1nc(N[C@H]2C[C@@H](NC(=O)Nc3ccc(F)c(F)c3F)C2)nc2c1NC(=O)[C@H](C)N2C` [Compound 460, 1-(2,3,4-trifluorophenyl)-3-(cis-3-(((S)-4,7,8-trimethyl-6-oxo-5,6,7,8-tetrahydropteridin-2-yl)amino)cyclobutyl)urea]: the IC50 (COLO 205, 5 h) is < 300 nM.

With `Cc1nc(N[C@H]2C[C@H](NC(=O)Nc3ccc(F)c(F)c3F)C2)nc2c1NC(=O)[C@H](C)N2C` [Compound 461, 1-(2,3,4-trifluorophenyl)-3-(trans-3-(((S)-4,7,8-trimethyl-6-oxo-5,6,7,8-tetrahydropteridin-2-yl)amino)cyclobutyl)urea], the IC50 (COLO 205, 5 h) is 1000 to 5000 nM.

Regarding `Cc1nc(N[C@H]2C[C@@H](NC(=O)Nc3ccc(Cl)nc3)C2)nc2c1NC(=O)[C@H](C)N2C` [Compound 462, 1-(6-chloropyridin-3-yl)-3-(cis-3-(((S)-4,7,8-trimethyl-6-oxo-5,6,7,8-tetrahydropteridin-2-yl)amino)cyclobutyl)urea], the 50% inhibitory concentration (IC50) (COLO 205, 5 h) lay within 1000 to 5000 nM.

On to `Cc1nc(N[C@H]2C[C@H](NC(=O)Nc3ccc(Cl)nc3)C2)nc2c1NC(=O)[C@H](C)N2C` [Compound 463, 1-(6-chloropyridin-3-yl)-3-(trans-3-(((S)-4,7,8-trimethyl-6-oxo-5,6,7,8-tetrahydropteridin-2-yl)amino)cyclobutyl)urea], for which, under “COLO 205, 5 h”, the IC50 was ≥ 5000 nM.

For `Cc1nc(N[C@H]2C[C@@H](NC(=O)Oc3ccc(F)cc3)C2)nc2c1NC(=O)[C@H](C)N2C` [Compound 464, 4-fluorophenyl (cis-3-(((S)-4,7,8-trimethyl-6-oxo-5,6,7,8-tetrahydropteridin-2-yl)amino)cyclobutyl)carbamate], for the setting “5 h”, the IC50 fell in the range of 300 to 1000 nM.

`Cc1nc(N[C@H]2C[C@H](NC(=O)Oc3ccc(F)cc3)C2)nc2c1NC(=O)[C@H](C)N2C` [Compound 465, 4-fluorophenyl (trans-3-(((S)-4,7,8-trimethyl-6-oxo-5,6,7,8-tetrahydropteridin-2-yl)amino)cyclobutyl)carbamate]: the IC50 (5 h) lay in the range of 300 to 1000 nM.

As for `Cc1nc(NCc2cnn(Cc3ccc(OC(F)(F)F)cc3)c2)nc2c1NC(=O)[C@H](C(C)C)N2C` [Compound 467, (S)-7-isopropyl-4,8-dimethyl-2-(((1-(4-(trifluoromethoxy)benzyl)-1H-pyrazol-4-yl)methyl)amino)-7,8-dihydropteridin-6(5H)-one], the IC50 (COLO 205, 5 h) was < 300 nM.

With `Cc1nc(NCc2cnn(-c3ccc(C(F)(F)F)nc3)c2)nc2c1NC(=O)[C@H](C)N2C` [Compound 468, (S)-4,7,8-trimethyl-2-(((1-(6-(trifluoromethyl)pyridin-3-yl)-1H-pyrazol-4-yl)methyl)amino)-7,8-dihydropteridin-6(5H)-one], where the note is “COLO 205, 5 h”, the IC50 was < 300 nM.

Turning to `Cc1nc(NCc2cnn(Cc3ccc(C(C)(C)C)nc3)c2)nc2c1NC(=O)[C@H](C(C)C)N2C` [Compound 469, (S)-2-(((1-((6-(tert-butyl)pyridin-3-yl)methyl)-1H-pyrazol-4-yl)methyl)amino)-7-isopropyl-4,8-dimethyl-7,8-dihydropteridin-6(5H)-one], the IC50 (COLO 205, 5 h) is < 300 nM.

As to `Cc1nc(NCc2cnn(Cc3ccc(C(C)(C)C#N)nc3)c2)nc2c1NC(=O)[C@H](C(C)C)N2C` [Compound 470, (S)-2-(5-((4-(((7-isopropyl-4,8-dimethyl-6-oxo-5,6,7,8-tetrahydropteridin-2-yl)amino)methyl)-1H-pyrazol-1-yl)methyl)pyridin-2-yl)-2-methylpropanenitrile], the IC50 (COLO 205, 5 h) was < 300 nM.

`Cc1nc(N[C@H]2C[C@H](NC(=O)Nc3ccc(C(F)(F)F)nc3)C2)nc2c1NC(=O)[C@H](C)N2C` [Compound 471, 1-(6-(trifluoromethyl)pyridin-3-yl)-3-(trans-3-(((S)-4,7,8-trimethyl-6-oxo-5,6,7,8-tetrahydropteridin-2-yl)amino)cyclobutyl)urea]: the IC50 (COLO 205, 5 h) was ≥ 5000 nM.
